Here are results for 4 compounds from patent US11306089B2, “Gamma-carboline compounds for the detection of Tau aggregates” (AC IMMUNE SA, priority 2018, dated 2022).

Marks after values point to notes of the source that are not given here.

For experiment [1], the target named is Tau in human Alzheimer disease brain homogenate (Homo sapiens, UniProt P10636). Nature of the experiment: Competition binding to Tau in AD brain homogenate (18F-labeled Tau binder). The following applies: non-radioactive fluorine-19 derivatives; for IC50: human AD brain homogenate. Further details: key to High affinity to Tau (IC50 in AD brain homogenate), grade: − poor; ∘ moderate; + good; ++ very good; +++ excellent. As to the method:
Determination of Binding in AD and Healthy Control Brain Homogenates
20 μg of human Alzheimer disease brain homogenate was incubated with a dilution series of each test compound (1000 to 0.06 nM) in the presence of 800 Bq of ^18F-labeled Tau binder. The samples were shaken at 110 rpm for 45 min at 37° C. Samples were then filtered through GF/B 96 well filter plates and washed twice with 300 μL assay buffer (PBS containing 0.1% BSA and 2% DMSO). Thereafter, filter plates were sealed and a Fuji Film Imaging Plate (BAS-SR2025) was placed on top. The imaging plate was analyzed after overnight exposition using a Fuji Film BAS-5000. Non-specific signal was determined with samples containing ^18F-labeled Tau-reference binder in the presence of assay buffer without brain substrate and competitor. Specific binding was calculated by subtracting the non-specific signal from the measured samples signal. The unblocked ^18F-labeled Tau-binder signal was defined as total binding. IC50 values were calculated by Prism V7 (GraphPad) setting total binding to 100%.

For experiment [2], the target named is amyloid-beta in human Alzheimer disease brain homogenate (Homo sapiens, UniProt P05067). Nature of the experiment: Binding affinity to amyloid-beta in AD brain homogenate (3H-PIB competition). Further details: key to Low affinity to amyloid-beta (IC50 in AD brain homogenate), grade: − poor; ∘ moderate; + good; ++ very good; +++ excellent. The following applies: non-radioactive fluorine-19 derivatives; for IC50: human AD brain homogenate. As for the experimental part:
Determination of the Binding Affinity to Amyloid-Beta in AD Brain Homogenate 20 μg of human Alzheimer disease brain homogenate was incubated with a dilution series of each test compound (1000 to 0.06 nM) in the presence of 700 Bq of ^3H-labeled beta-amyloid binder PIB. The samples were shaken at 110 rpm for 60 min at 37° C. Samples were then filtered through GF/B 96 well filter plates and washed twice with 200 μL assay buffer (PBS containing 0.1% BSA and 2% DMSO). Thereafter, 40 μL Szintillation cocktail was added and the filter plates were sealed. The counts were then counted using a TopCount (Perkin Elmer). Non-specific signal was determined with samples containing ^3H-labeled beta-amyloid binder in the presence of assay buffer without brain substrate and competitor. Specific binding was calculated by subtracting the non-specific signal from the measured samples signal. The unblocked ^3H-labeled beta-amyloid binder signal was defined as total binding. IC50 values were calculated by Prism V7 (GraphPad) setting total binding to 100%.

In experiment [3] the target is T1, MAO-A (Homo sapiens, UniProt P21397).
T1 construct: human brain homogenate (without AD pathology, HC); from tissue; host or cells: human brain homogenate without AD pathology (HC)
T1 sequence (P21397 1-527): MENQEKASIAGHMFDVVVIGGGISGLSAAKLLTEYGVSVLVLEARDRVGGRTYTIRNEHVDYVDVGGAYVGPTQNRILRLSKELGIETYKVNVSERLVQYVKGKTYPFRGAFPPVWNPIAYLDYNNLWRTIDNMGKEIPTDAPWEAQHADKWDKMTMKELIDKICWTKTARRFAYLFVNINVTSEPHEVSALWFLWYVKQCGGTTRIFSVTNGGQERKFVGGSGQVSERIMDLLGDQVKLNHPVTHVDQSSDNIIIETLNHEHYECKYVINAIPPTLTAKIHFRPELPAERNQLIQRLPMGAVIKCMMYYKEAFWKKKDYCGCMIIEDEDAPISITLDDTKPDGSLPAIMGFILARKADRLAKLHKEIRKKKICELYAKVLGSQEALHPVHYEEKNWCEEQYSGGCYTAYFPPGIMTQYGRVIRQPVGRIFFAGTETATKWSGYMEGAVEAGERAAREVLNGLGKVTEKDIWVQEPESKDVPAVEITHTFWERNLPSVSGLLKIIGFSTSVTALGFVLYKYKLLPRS
Nature of the experiment: Binding affinity to MAO-A in human HC brain homogenate (3H-Harmine competition). Further details: key to Low affinity to MAO A (IC50 in human HC brain homogenate), grade: − poor; ∘ moderate; + good; ++ very good; +++ excellent. The following applies: for IC50: human control brain homogenate, 3H-Harmine competition. As for the experimental part: (§1) Determination of the Binding Affinity to MAO-A in HC Brain Homogenate
(§2) 20 μg of mouse whole brain or human brain homogenate (without AD pathology, HC) was incubated with a dilution series of each test compound (1000 to 0.06 nM) in the presence of 700 Bq of ^3H-labeled MAO-A binder Harmine. The samples were shaken at 110 rpm for 60 min at 37° C. Samples were then filtered through GF/B 96 well filter plates and washed twice with 200 μL assay buffer (PBS containing 0.1% BSA and 2% DMSO). Thereafter, 40 μL Szintillation cocktail was added and the filter plates were sealed. The counts were then counted using a TopCount (Perkin Elmer). Non-specific signal was determined with samples containing ^3H-Harmine in the presence of assay buffer without brain substrate and competitor. Specific binding was calculated by subtracting the non-specific signal from the measured samples signal. The unblocked ^3H-Harmine signal was defined as total binding. IC50 values were calculated by Prism V7 (GraphPad) setting total binding to 100%.

Experiment [4] deals with T2, MAO-A (Mus musculus, UniProt Q64133).
T2 construct: 20 μg of mouse whole brain or human brain homogenate; from tissue; host or cells: mouse whole brain homogenate
T2 sequence (Q64133 1-526): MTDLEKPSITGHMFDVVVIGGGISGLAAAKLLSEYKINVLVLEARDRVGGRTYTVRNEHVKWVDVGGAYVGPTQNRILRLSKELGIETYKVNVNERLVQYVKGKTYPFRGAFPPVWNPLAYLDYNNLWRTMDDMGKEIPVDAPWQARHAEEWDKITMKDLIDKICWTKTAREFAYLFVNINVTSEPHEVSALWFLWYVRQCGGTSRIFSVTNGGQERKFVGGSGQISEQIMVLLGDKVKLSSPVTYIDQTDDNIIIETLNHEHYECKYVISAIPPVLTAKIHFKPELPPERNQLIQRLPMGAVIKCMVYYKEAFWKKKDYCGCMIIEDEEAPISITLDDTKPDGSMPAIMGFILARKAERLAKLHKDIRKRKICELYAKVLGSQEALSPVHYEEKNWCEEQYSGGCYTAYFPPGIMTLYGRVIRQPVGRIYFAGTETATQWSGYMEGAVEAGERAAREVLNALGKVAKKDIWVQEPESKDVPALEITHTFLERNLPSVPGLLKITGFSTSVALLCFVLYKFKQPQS
Nature of the experiment: Binding affinity to MAO-A in mouse whole brain homogenate (3H-Harmine competition). The following applies: for IC50: 3H-Harmine competition. Further details: key to Low affinity to MAO A (IC50 in mouse brain homogenate), grade: − poor; ∘ moderate; + good; ++ very good; +++ excellent. As for the experimental part:
as §1, §2

Chain of amyloid-beta in human Alzheimer disease brain homogenate (P05067 672-711 limits assumed): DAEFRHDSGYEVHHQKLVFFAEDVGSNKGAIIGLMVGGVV
Chain of Tau in human Alzheimer disease brain homogenate (P10636 623-708 limits assumed): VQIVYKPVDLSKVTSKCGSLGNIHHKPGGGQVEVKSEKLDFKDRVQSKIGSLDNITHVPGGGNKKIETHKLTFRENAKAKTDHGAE

Broadly, the IC50 is the concentration at which inhibition is half-maximal. As for `Fc1ccc(-c2ccc3c(c2)[nH]c2ccncc23)cn1` [F-1, reference compound], the IC50 in experiment [1] was below 0.002 µM; in experiment [2], above 1 µM; on MAO-A [3], 0.0059 µM; on MAO-A [4] (mouse brain homogenate) it was 0.0046 µM.
For `Fc1cc(-c2ccc3c(c2)[nH]c2ccncc23)ccn1` [F-2], in that order: below 0.002 µM, above 1 µM, 0.0372 µM and 0.0514 µM.
For `[18F]c1ccc(-c2ccc3c(c2)[nH]c2ccncc23)cn1` [^18F-1, reference compound], in that order: below 0.002 µM, above 1 µM, 0.0059 µM and 0.0046 µM.
In the case of `[18F]c1cc(-c2ccc3c(c2)[nH]c2ccncc23)ccn1` [^18F-2], the “High affinity to Tau (IC50 in AD brain homogenate), grade” value in experiment [1] (AD brain homogenate) is recorded as “+++”. Also, the IC50 in experiment [1] was below 0.002 µM; in experiment [2], above 1 µM; at MAO-A [3], 0.0372 µM; on MAO-A [4] (mouse brain homogenate) it was 0.0514 µM. Moreover, the “Low affinity to amyloid-beta (IC50 in AD brain homogenate), grade” value in experiment [2] (AD brain homogenate) was “+++^a)”. Further, on MAO-A [3] (human HC brain homogenate), the “Low affinity to MAO A (IC50 in human HC brain homogenate), grade” value is “∘”. The “fold higher IC50 than compound 18F-1, MAO A in human control brain homogenate” value on MAO-A [3] (ratio to 18F-1) was 6.3 fold. Moreover, the “Low affinity to MAO A (IC50 in mouse brain homogenate), grade” value at MAO-A [4] (mouse brain homogenate) is reported as “∘”. Further, the “fold higher IC50 than compound 18F-1, MAO A in whole mouse brain homogenate” value on MAO-A [4] (ratio to 18F-1) stood at 11 fold.
